Data: the supplement of paper PMC11061612

Assays:
8-MG-BA (Glioblastoma) = assay: combination Emax (second highest fraction inhibited in the dose matrix, 72 h); higher = more inhibition; extreme values may be limits of the assay
Procedure, shortened: (§1)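 Bliss excess equals the observed combination effect minus the expected value EA + EB − EA·EB, where EA and EB are the effects of each agent alone. Combination Emax is the second-highest inhibition within the matrix. Inhibition was scaled from CellTiter-Glo 2.0 luminescence, with 0 set by vehicle wells and 1 by blank wells, after 72 hours of two-drug dosing of cells plated in 1536-well plates.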

[1] = system: COLO-824 (Breast Carcinoma); assay: as above
Procedure, shortened: as §1

[2] = system: TT2609-C02 (Thyroid Gland Carcinoma); assay: as above
Procedure, shortened: as §1

[3] = system: JSC-1 (B-Cell Non-Hodgkin's Lymphoma); assay: as above
Procedure, shortened: as §1

[4] = system: ONS-76 (Other Solid Carcinomas); assay: as above
Procedure, shortened: as §1

[5] = system: NCI-H1581 (Non-Small Cell Lung Carcinoma); assay: as above
Procedure, shortened: as §1

[6] = system: CCK-81 (Colorectal Carcinoma); assay: as above
Procedure, shortened: as §1

GI-ME-N (Neuroblastoma) = assay: as above
Procedure, shortened: as §1

[7] = system: NCI-H2066 (Squamous Cell Lung Carcinoma); assay: as above
Procedure, shortened: as §1

[8] = system: A549 (Lung Adenocarcinoma); assay: as above
Procedure, shortened: as §1

FU97 (Gastric Carcinoma) = assay: as above
Procedure, shortened: as §1

NCI-H2591 (Mesothelioma) = assay: as above
Procedure, shortened: as §1

[9] = system: HCC1954 (Breast Carcinoma); assay: as above
Procedure, shortened: as §1

[10] = system: NCI-H1650 (Lung Adenocarcinoma); assay: as above
Procedure, shortened: as §1

[11] = system: KARPAS-422 (B-Cell Non-Hodgkin's Lymphoma); assay: as above
Procedure, shortened: as §1

[12] = system: A3-KAW (B-Cell Non-Hodgkin's Lymphoma); assay: as above
Procedure, shortened: as §1

[13] = system: VCaP (Prostate Carcinoma); assay: as above
Procedure, shortened: as §1

[14] = system: TT (Thyroid Gland Carcinoma); assay: Bliss excess, mean over the matrix (fraction); higher = more synergy
Procedure, shortened: as §1

[15] = system: COLO-320-HSR (Colorectal Carcinoma); assay: as above
Procedure, shortened: as §1

[16] = system: OS-RC-2 (Kidney Carcinoma); assay: as above
Procedure, shortened: as §1

| Compound | combination Emax (8-MG-BA (Glioblastoma)) | combination Emax [1] | combination Emax [2] | combination Emax [3] | combination Emax [4] | combination Emax [5] | combination Emax [6] | combination Emax (GI-ME-N (Neuroblastoma)) | combination Emax [7] | combination Emax [8] | combination Emax (FU97 (Gastric Carcinoma)) | combination Emax (NCI-H2591 (Mesothelioma)) | combination Emax [9] | combination Emax [10] | combination Emax [11] | combination Emax [12] | combination Emax [13] | Bliss excess [14] | Bliss excess [15] | Bliss excess [16] |
| --- | --- | --- | --- | --- | --- | --- | --- | --- | --- | --- | --- | --- | --- | --- | --- | --- | --- | --- | --- | --- |
| Cc1c2c(nn1C)CSCc1cc(n(C)n1)CSc1cc(c3ccccc3c1)OCCCc1c(C(=O)O)n(C)c3c-2c(Cl)ccc13 [AZD5991] + Cn1cnc2c(F)c(Nc3ccc(Br)cc3Cl)c(C(=O)NOCCO)cc21 [Selumetinib] (first compound max 1 µM, 7x7, partner max 3 µM) | 0.739 | 0.406 | 0.569 | 1 | 0.631 | 0.991 | 0.947 | 0.421 | 0.258 | 0.64 | 0.411 | 0.27 | 0.982 | 0.16 | 0.998 | 1 | 0.911 | -0.0526 | 0.0173 | -0.0557 |
| Cc1cc2ncnn2cc1Nc1ncc2c(n1)n(C1CCOCC1)c(=O)n2C [AZD7648] + C=CCn1c(=O)c2cnc(Nc3ccc(N4CCN(C)CC4)cc3)nc2n1-c1cccc(C(C)(C)O)n1 [AZD1775] (first compound max 10 µM, partner max 1 µM) | 0.648 | 0.658 | 0.304 | 0.931 | 0.589 | 0.379 | 0.833 | 0.393 | 0.339 | 0.578 | 0.397 | 0.368 | 0.483 | 0.417 | 0.784 | 0.896 | 0.533 | -0.0215 | -0.0082 | -0.0474 |
| Cc1cc2ncnn2cc1Nc1ncc2c(n1)n(C1CCOCC1)c(=O)n2C [AZD7648] + CCN(CCO)CCCOc1ccc2c(Nc3cc(CC(=O)Nc4cccc(F)c4)[nH]n3)ncnc2c1 [AZD2811] (first compound max 10 µM, 7x7, partner max 1 µM) | 0.358 | 0.762 | 0.244 | 0.486 | 0.398 | 0.499 | 0.291 | 0.207 | 0.356 | 0.718 | 0.337 | 0.37 | 0.342 | 0.287 | 0.556 | 0.608 | 0.314 | -0.0266 | 0.0372 | 0.0201 |
| Cc1cc2ncnn2cc1Nc1ncc2c(n1)n(C1CCOCC1)c(=O)n2C [AZD7648] + CN(C)CCCOc1ccc(-c2ccc3ncc4c(c3c2)n(C2CCOCC2)c(=O)n4C)cn1 [AZD0156] (first compound max 10 µM, 7x7, partner max 1 µM) | 0.31 | 0.283 | 0.0937 | 0.303 | 0.26 | 0.369 | 0.299 | 0.157 | 0.321 | 0.468 | 0.382 | 0.334 | 0.307 | 0.25 | 0.479 | 0.597 | 0.265 | -0.0269 | 0.0391 | 0.0028 |
| Cc1cc2ncnn2cc1Nc1ncc2c(n1)n(C1CCOCC1)c(=O)n2C [AZD7648] + C[C@@H]1COCCN1C2=NC(=NC(=C2)C3(CC3)[S@](=N)(=O)C)C4=C5C=CNC5=NC=C4 [AZD6738] (first compound max 10 µM, 7x7, partner max 10 µM) | 0.769 | 0.738 | 0.191 | 0.896 | 0.825 | 0.471 | 0.9 | 0.59 | 0.379 | 0.786 | 0.42 | 0.39 | 0.568 | 0.324 | 0.639 | 0.969 | 0.452 | 0.0666 | -0.0398 | -0.0077 |
| Cc1cc2ncnn2cc1Nc1ncc2c(n1)n(C1CCOCC1)c(=O)n2C [AZD7648] + O=C(c1cc(Cc2n[nH]c(=O)c3ccccc23)ccc1F)N1CCN(C(=O)C2CC2)CC1 [Olaparib] (first compound max 10 µM, 7x7, partner max 10 µM) | 0.329 | 0.279 | 0.156 | 0.0503 | 0.246 | 0.168 | 0.162 | 0.141 | 0.295 | 0.59 | 0.291 | 0.248 | 0.161 | 0.0772 | 0.55 | 0.656 | 0.141 | -0.0702 | -0.0169 | -0.0486 |
| NC1(C(=O)N[C@@H](CCO)c2ccc(Cl)cc2)CCN(c2ncnc3[nH]ccc23)CC1 [Capivasertib] + CC(=O)c1c(C)c2cnc(Nc3ccc(N4CCNCC4)cn3)nc2n(C2CCCC2)c1=O [Palbociclib] (first compound max 10 µM, 7x7, partner max 10 µM) | 0.597 | 0.612 | 0.376 | 0.669 | 0.557 | 0.373 | 0.337 | 0.422 | 0.507 | 0.764 | 0.358 | 0.364 | 0.74 | 0.351 | 0.771 | 0.846 | 0.514 | -0.001 | -0.0013 | 0.0249 |
| NC1(C(=O)N[C@@H](CCO)c2ccc(Cl)cc2)CCN(c2ncnc3[nH]ccc23)CC1 [Capivasertib] + CC(C)n1c(=O)n(C)c2cnc3cc(F)c(-c4ccc(OCCCN5CCCCC5)nc4)cc3c21 [AZD1390] (first compound max 10 µM, 7x7, partner max 0.3 µM) | 0.387 | 0.464 | 0.167 | 0.364 | 0.386 | 0.129 | 0.327 | 0.335 | 0.553 | 0.59 | 0.361 | 0.182 | 0.752 | 0.317 | 0.507 | 0.49 | 0.458 | -0.0945 | -0.0512 | -0.0779 |
| NC1(C(=O)N[C@@H](CCO)c2ccc(Cl)cc2)CCN(c2ncnc3[nH]ccc23)CC1 [Capivasertib] + CCN(CCO)CCCOc1ccc2c(Nc3cc(CC(=O)Nc4cccc(F)c4)[nH]n3)ncnc2c1 [AZD2811] (first compound max 10 µM, 7x7, partner max 1 µM) | 0.508 | 0.85 | 0.542 | 0.69 | 0.589 | 0.469 | 0.366 | 0.324 | 0.534 | 0.698 | 0.369 | 0.297 | 0.87 | 0.351 | 0.531 | 0.674 | 0.543 | 0.002 | -0.0018 | -0.0136 |
| NC1(C(=O)N[C@@H](CCO)c2ccc(Cl)cc2)CCN(c2ncnc3[nH]ccc23)CC1 [Capivasertib] + COc1nnc2ccc(N3CCC(c4ccc(OCCN5CCN(C)C(=O)[C@H]5C)cc4)CC3)nn12 [AZD5153] (first compound max 10 µM, 7x7, partner max 1 µM) | 0.797 | 0.776 | 0.461 | 0.793 | 0.627 | 0.462 | 0.695 | 0.343 | 0.77 | 0.823 | 0.821 | 0.334 | 0.922 | 0.442 | 0.68 | 1 | 0.96 | 0.0241 | -0.0289 | 0.117 |
| NC1(C(=O)N[C@@H](CCO)c2ccc(Cl)cc2)CCN(c2ncnc3[nH]ccc23)CC1 [Capivasertib] + C[C@@H]1COCCN1C2=NC(=NC(=C2)C3(CC3)[S@](=N)(=O)C)C4=C5C=CNC5=NC=C4 [AZD6738] (first compound max 10 µM, 7x7, partner max 10 µM) | 0.873 | 0.68 | 0.364 | 0.95 | 0.852 | 0.235 | 0.857 | 0.411 | 0.626 | 0.848 | 0.482 | 0.482 | 0.859 | 0.541 | 0.566 | 0.992 | 0.567 | -0.0378 | -0.0883 | -0.0398 |
| NC1(C(=O)N[C@@H](CCO)c2ccc(Cl)cc2)CCN(c2ncnc3[nH]ccc23)CC1 [Capivasertib] + Cn1cnc2c(F)c(Nc3ccc(Br)cc3Cl)c(C(=O)NOCCO)cc21 [Selumetinib] (first compound max 10 µM, 7x7, partner max 10 µM) | 0.592 | 0.595 | 0.542 | 0.724 | 0.873 | 0.513 | 0.737 | 0.377 | 0.685 | 0.922 | 0.397 | 0.469 | 0.805 | 0.358 | 0.58 | 0.698 | 0.487 | -0.0098 | 0.0222 | -0.0412 |
| Cc1nc(Nc2ncc(C(=O)Nc3c(C)cccc3Cl)s2)cc(N2CCN(CCO)CC2)n1 [Dasatinib] + CC(=O)Nc1cccc(-n2c(=O)n(C3CC3)c(=O)c3c(Nc4ccc(I)cc4F)n(C)c(=O)c(C)c32)c1 [Trametinib] (first compound max 2 µM, 7x7, partner max 1 µM) | 0.756 | 0.232 | 0.748 | 0.543 | 0.888 | 0.552 | 0.641 | 0.49 | 0.402 | 0.97 | 0.422 | 0.527 | 0.279 | 0.419 | 0.469 | 0.464 | 0.0632 | -0.0272 | -0.0492 | -0.0396 |
